According to BindingDB's records for doi:10.1021/acs.jmedchem.8b01200 (Fuji Research Park, R&D Division, 2018):

Assay: Agonist activity at PPARgamma in human MKN45 cells assessed as cell differentiation after 5 days by Hoechst 33342 staining-based assay

## CCCCCS(=O)(=O)NC(=O)c1ccc2nc(C)n(Cc3ccc(Cl)cc3Cl)c2c1 [ATx08-001]
  EC50: > 500 nM
